Tests used:
[1] = system: HepG2 cells; test: Hepatotoxicity assay, HepG2 cell viability (PrestoBlue, ToxiLight); type: cell-based, human; conditions: concentrations up to 50 μM; viability assay and ToxiLight
Protocol: (§1) Hepatotoxiticy assay was conducted according to our previously described procedures.[42]Cell culture and treatment: The human hepatocellular carcinoma (HepG2) cell line was acquired from ATCC, Manassas, USA (HB-8065), and maintained according to the manufacturer’s ATCC protocol. Cell culture conditions included a medium consisting of Dulbecco’s modified Eagle’s medium (DMEM, Merck), 10% fetal bovine serum, […], 100 IU/mL penicillin (acquired from ThermoFisher), humidified atmosphere containing 5% of carbon dioxide, temperature of 37 °C. The stock solution of the tested compound was prepared in DMSO (10 mM) and next diluted with buffered phosphate saline (PBS, Merck). Cell membrane damage was examined with the use of a ToxiLight bioassay (Lonza), rendering the manufacturer’s protocol described previously.[42] A culture medium containing 10% Triton X-100 (Merck) was used as the positive control of cell damage, while the negative control contained solely vehicle. After incubating for 5 min, the luminescence was examined with the plate reader POLARstar Omega (BMG Labtech). The results were expressed as a percentage of the positive control, which was defined as the percentage of dead cells relative to the control sample. Cell viability assay: The viability of cells was examined with the use of the PrestoBlue reagent (ThermoFisher) and protocol provided by the manufacturer. After incubating for 24 h with the examined compounds, one-tenth of the remaining medium volume was mixed with the reagent (PrestoBlue) in a microplate well. Following incubation at 37 °C during 15 min, the fluorescence (EX 530; EM 580 nm) was measured using the plate reader POLARstar Omega, (BMG Labtech). The viability values obtained are presented as a percentage of live cells relative to the DMSO (control sample). The GraphPad program was used to perform the statistical analysis. The mean values with their corresponding coefficient of variation (CV) were reported for all data. The differences between the groups were analyzed using one-way analysis of variance (ANOVA) followed by Dunnett’s multiple comparison tests as post hoc analysis. The statistical significance: p < 0.05.

[2] = as above; type: cell-based, human; conditions: human, HepG2 cells, 24 h, read-out: viability of cells, MEAN (percentage of control, live cells)
Protocol: as §1

[3] = system: female Wistar rats; test: Forced swim test in rats; type: in vivo, rat
Protocol: Naïve female Wistar rats (weighing 180–200 g) were used in the study. The animals were housed in groups of three to four in standard Makrolon cages (37 cm × 21 cm × 15 cm) under strictly controlled laboratory conditions (ambient temperature 21–24 °C, relative humidity 45–65%) with a 12/12 h light–dark regime (light on at 6:00 a.m. and off at 6:00 p.m.). Animals had unrestricted access to tap water and food (typical pellets). Prior the experiment the animals were randomly appointed to the group. The behavioral studies were accomplished between 8:00 a.m. and 5:00 p.m. with the researcher blind to the study. The experiments were performed according to protocols approved by the Local Ethical Committee in Krakow (Approval Number 147/2018), Poland. Housing and experimental procedures were conducted under the European Union Directive of September 22, 2010 (2010/63/EU) and Polish legislation regarding animal studies. All efforts were made to minimize animal suffering and the number of animals used in the study.
Vortioxetine (Sigma, Germany) and the tested compounds (16 and 6) were dissolved in 10% cyclodextrin and administered ip 30 min before the test or during 14 consecutive days, with the last injection 60 min before the test. 10% cyclodextrin was administrated to control group.
A modified forced swim test was carried out according to Detke et al.[50],[51] First, the animals were individually placed inside Plexiglas cylinders, which were 40 cm high and 18 cm in diameter, filled with water at a temperature of 23–25 °C for 15 min. Afterward, the rats were transferred to a Plexiglas box and kept under a 60 W bulb for 30 min to dry. The day after, exactly 24 h later, the rats were once again placed in the cylinder, and their duration of immobility, swimming, and climbing was observed and recorded during a 5 min. The swimming behavior involved energetic movements such as horizontal swimming around the cylinder, while climbing activity referred to upward movements of the forepaws along the swim chamber’s side. Immobility was recorded when the rat only made necessary movements to keep its head above the water. For each test, a fresh water was provided. Open field test in rats: The test was conducted as previously reported by our research group.[52] The test was performed in a darkened room employing the Motor Monitor System (Campden Instruments, Ltd., U.K.). The system was equipped with two SmartFrame Open Field stations, each measuring 40 cm × 40 cm × 38 cm and consisting of 16 × 16 beams. These stations were placed inside sound-attenuating chambers and connected to a PC software using […]. The animals, belonging to either the vehicle-injected or drug-injected group, were individually positioned at the center of the station. The Motor Monitor System, which was automated, recorded the animal’s ambulation in both the X and Y axes, as well as the number of rearing and peeping episodes. Additionally, the total distance traveled by each animal during the 5 min test period was also recorded. Statistical analysis: Results are presented as the mean ± SEM values. They were estimated using one-way analysis of variance (ANOVA), followed by Newman–Keuls post hoc or unpaired two-tailed Student t test. Statistical significance was considered when p < 0.05 for differences between groups.

[4] = acute, 3 mg/kg ip 30 min before test

Cc1c(OCc2ccccc2)cccc1N1CCN(CCOC(=O)CCCN)CC1.Cl.Cl [Compound 16, 1-(2-((4-Ammoniobutanoyl)oxy)ethyl)-4-(3-(benzyloxy)-2-methylphenyl)piperazin-1-ium Dichloride]
reduction of HepG2 viability [1]: not significant reduction of viability
viability at 24 h, 1 µM ([2]; HepG2, 1 µM): 102%
viability at 24 h, 10 µM ([2]; HepG2, 10 µM): 104%
viability at 24 h, 50 µM ([2]; HepG2, 50 µM): 102%
viability at 24 h, 100 µM ([2]; HepG2, 100 µM): 14%
duration of swimming [3, 4]: without affecting the duration of swimming
increase of climbing behaviors vs control group [3, 4]: 336.5%
reduction of immobility time vs control group [3, 4]: 31.9%
decrease of immobility time vs vehicle-treated group ([3]; subchronic, 3 mg/kg ip for 14 days, test 60 min after last injection): 22.9%
